{
  "source": "patent US6716880B2",
  "about": "“Compounds for the treatment of estrogen-dependent illnesses and methods for making and using the same” (Duquesne University of the Holy Ghost, priority 1998, dated 2004)",
  "key": {"[1]": {"target": "T1, estrone sulfatase in MDA-MB-231 breast cancer cells (Homo sapiens, UniProt P08842)", "T1 construct": "using intact monolayers of MDA-MB-231 breast cancer cells; endogenous in cells; host or cells: MDA-MB-231 breast cancer cells", "T1 sequence (P08842 22-583)": "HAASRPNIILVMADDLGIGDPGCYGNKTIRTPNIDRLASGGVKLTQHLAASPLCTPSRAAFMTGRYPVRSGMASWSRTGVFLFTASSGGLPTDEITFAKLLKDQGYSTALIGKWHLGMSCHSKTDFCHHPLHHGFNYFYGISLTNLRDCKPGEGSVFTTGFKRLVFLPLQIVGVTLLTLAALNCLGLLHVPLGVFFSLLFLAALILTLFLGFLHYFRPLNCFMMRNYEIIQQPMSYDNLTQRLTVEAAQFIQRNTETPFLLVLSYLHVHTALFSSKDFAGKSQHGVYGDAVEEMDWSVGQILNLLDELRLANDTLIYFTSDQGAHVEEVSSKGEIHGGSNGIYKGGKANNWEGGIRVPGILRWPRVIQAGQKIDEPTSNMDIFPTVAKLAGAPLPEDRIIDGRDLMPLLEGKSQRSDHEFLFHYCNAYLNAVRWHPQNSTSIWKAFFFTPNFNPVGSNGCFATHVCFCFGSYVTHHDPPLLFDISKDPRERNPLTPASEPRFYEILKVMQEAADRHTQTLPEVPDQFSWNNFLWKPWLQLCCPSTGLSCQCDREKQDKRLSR", "test": "Intact breast cancer cell estrone sulfatase assay", "assay_type": "cell-based", "conditions": "intact MDA-MB-231 cells, 18 h incubation", "procedure": "The ability of the compound prepared according to Example 1 to block hydrolysis of estrone sulfate was examined using intact monolayers of MDA-MB-231 breast cancer cells.\nMDA-MB-231 cells were plated into 6-well dishes at approximately 1×10^6 cells/well in growth medium and incubated at 37° C. overnight to facilitate adherence to the plates. The growth medium contained 0.2% (v/v) sodium bicarbonate, 5% heat-inactivated fetal-calf serum, […] gentamicin, and 1% (v/v) antibiotic/antimycotic. Following incubation, growth medium was removed and replaced with growth medium containing ^3H-estrone sulfate (100,000 dpm/ml), with or without the compound of Example 1 (10 μM). Cells were incubated for 18 h, then plates were cooled for 15 min. Medium from each well (500 μL) was aliquoted into 16×100 mm tubes. Three mls of toluene were added to each tube for extraction of unconjugated steroids. The tubes were vortexed for 1 min and then centrifuged at 2500×g for 5 min to separate the aqueous and organic phases. One mL of the organic phase (containing radiolabeled unconjugated steroids) was transferred to scintillation vials and 5 ml scintillation cocktail was added. Total radioactivity was counted using a Packard Tri-carb scintillation counter at 50% efficiency for ^3H. All extractions were performed in duplicate and all treatments were run in triplicate. […]"}, "estrone sulfatase": {"target": "T2, estrone sulfatase (Rattus norvegicus, UniProt P15589)", "T2 construct": "using rat liver microcosm as a source of sulfatase; from tissue; host or cells: rat liver microsomal fraction (juvenile female Sprague-Dawley rats)", "T2 sequence (P15589 20-577)": "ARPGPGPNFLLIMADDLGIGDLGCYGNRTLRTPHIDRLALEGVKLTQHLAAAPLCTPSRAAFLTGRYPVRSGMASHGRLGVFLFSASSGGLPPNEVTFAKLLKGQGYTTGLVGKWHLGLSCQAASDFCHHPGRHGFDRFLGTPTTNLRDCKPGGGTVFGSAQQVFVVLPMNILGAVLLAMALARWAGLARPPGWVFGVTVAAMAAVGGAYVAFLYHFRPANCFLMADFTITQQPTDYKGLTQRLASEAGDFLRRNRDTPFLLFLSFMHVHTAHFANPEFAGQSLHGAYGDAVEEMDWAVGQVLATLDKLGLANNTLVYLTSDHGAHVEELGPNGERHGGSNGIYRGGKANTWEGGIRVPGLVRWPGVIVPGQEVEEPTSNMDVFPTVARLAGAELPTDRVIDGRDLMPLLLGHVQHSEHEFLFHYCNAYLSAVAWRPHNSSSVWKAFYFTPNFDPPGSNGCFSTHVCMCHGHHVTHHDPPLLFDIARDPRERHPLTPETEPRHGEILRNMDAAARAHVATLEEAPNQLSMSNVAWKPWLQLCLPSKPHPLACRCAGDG", "test": "Rat liver microsome sulfatase assay (Lineweaver-Burk)", "assay_type": "biochemical", "conditions": "rat liver microsomes", "quoted_text": "Livers, obtained from juvenile female Sprague-Dawley rats, were minced with scissors in ice-cold 0.25M Tris-sucrose buffer (1:2 w:v) and homogenized with a Tissue Tearor using three 30 sec bursts. The nuclear fraction was pelleted by centrifugation at 1500×g for 15 min at 4° C. The supernatant was decanted and centrifuged at 10,000×g for 30 min at 4° C. to pellet the mitochondrial fraction. The resulting supernatant was removed and centrifuged at 100,000×g to yield the microsomal fraction. The microsomal pellet was resuspended in 50 mM Tris-HCl buffer (1:5 w:v) and protein from the microsomal suspension was determined by using the BCA assay.\n^3H-estrone sulfate (53 Ci/mmol) was diluted in 50 mM Tris-HCl buffer and 50 μl (140,000 dpm) of the solution were added to all assay tubes. Radioinert estrone sulfate was dissolved in ethanol and then diluted into 50 mM Tris-HCl buffer. To achieve final concentrations of estrone sulfate, 100 μl of desired concentrations were added to the assay tubes. Compounds prepared according to Example 1 were dissolved in ethanol and then diluted in 50 mM Tris-HCl buffer. […] Product formation for samples containing an inhibitor was compared to that of the control samples, and data for Km and Ki were assessed through Michaelis Menten and Lineweaver-Burk calculations."}},
  "data": [
    {"compound": "CC/C(=C(/c1ccc(OCCN(C)C)cc1)c1ccc(OS(N)(=O)=O)cc1)c1ccccc1", "note": "[tamoxifen sulfamate, (Z)-4-Hydroxytamoxifen Sulfamate]", "values": [
      {"measurement": "inhibition at 10 µM", "setting": "[1]", "result": "~50", "unit": "%"},
      {"measurement": "Ki", "setting": "estrone sulfatase; double reciprocal plot, fixed inhibitor concentration 10 μM", "result": "~17", "unit": "µM"},
      {"measurement": "type of inhibition", "setting": "estrone sulfatase; maximum velocity unchanged, Km increased", "result": "competitive inhibitor"}
    ]}
  ]
}
